This note sets out measurements from US5286715A, “New adamantyl comprising tripeptides, derivatives and hydrochlorides thereof, their preparation and use” (priority 1989, dated 1994).

Values joined by “and” are separate entries in the source; they are usually repeats but may differ in a detail not shown here. Identical values can stand only once. Like-named read-outs stand apart in the source and are kept apart here.

Experiment [1] has as its system MCa mammary carcinoma. In words: Intramuscular tumor growth in mice bearing MCa mammary carcinoma. It counts as in vivo, CBA mice. Conditions: for Primary tumor weight % Inhibition / Primary tumor weight mg ± S.E.: 24 hrs after last treatment, hydrochloride. How it is done:
The antitumor activity was examined in CBA mice bearing the MCa mammary carcinoma tumor or in C57BL mice inoculated with B-16 melanoma. The doses tested, 5 and 25 mg/kg bodyweight/day, given i.v. on days 1, 5, 9, 13 after tumor implantation were devoid of severe toxicity.
(§1) ^a Groups of 7 CBA mice, inoculated i.m. into the calf of the left
(§2) hind leg with 10^6 viable MCa mammary carcinoma cells on day 0, were
(§3) given i.v. the test compounds (saline for controls) on days 1, 5, 9, 13.
^b Evaluated 24 hrs after the last treatment. The tumor growth was
estimated by calliper measurements taking tumor density equal to 1 and
using the formula: tumor weight = (π/6)xA^2 xB, with A and B as tw
perpendicular axes (A<B).

The test system of experiment [2] is MCa mammary carcinoma. Nature of the experiment: Lung metastases development in mice bearing MCa mammary carcinoma. In kind it is in vivo, CBA mice. Conditions: for Animals without macroscopically detectable lung metastases % / lung metastases % Inhibition / lung metastases, mean: 25 mg/kg i.v. days 1, 5, 9, 13, evaluated day 23, hydrochloride. Here is the method:
| ^a Groups of 7 CBA mice, inoculated i.m. into the calf of the left | hind leg with 10^6 viable MCa mammary carcinoma cells on day 0, were | given i.v. 25 mg/kg of each test compound (saline for controls) on days 1 | 5, 9, 13. Lung metastases evaluation was performed on the freshly removed | lung tissue immediately after killing on day 23 by using a low power | stereo microscope. | ^b Animals without macroscopically detectable lung metastatic nodules

Another experiment concerns Influenza A virus H3N2. In kind it is cell-based. To be noted: MDCK cells 10^4 cells/100 μL/well.
A further experiment relates to melanoma B-16. In words: Lung metastases development in mice bearing melanoma B-16. It counts as in vivo, C57BL/6 mice. To be noted: for Animals without metastases % / Number of metastatic nodules/mouse % inhibition / Number of metastatic nodules/mouse mean (min-max): counted day 30; for reduction of lung metastases to a fraction of the number in untreated control groups: i.v. administration on day 4. Here is the method:
^a Groups of 8 C57BL/6 mice (5-6 months old), inoculated i.v. with
10^5 melanoma B16 cells on day 0, were given i.v. 25 mg/kg of each
test compound (saline for controls) on days 4 or 7.
Macroscopically detectable lung metastases were counted on day 30.

For another experiment, the system named is Influenza A virus H1N1. It counts as cell-based. Conditions: MDCK cells 10^4 cells/100 μL/well.
In experiment [3] the test system is MCa mammary carcinoma. Nature of the experiment: Survival time of mice bearing MCa mammary carcinoma. In kind it is in vivo, CBA mice. Conditions: hydrochloride. Here is the method: as §1, §2, §3
^b Survival time was recorded as the number of days of survival of
each mouse from the tumor implantation.

In another experiment the test system is anti-HgG antibodies. Nature of the experiment: Immunoadjuvant activity in rabbits immunized with human gamma globulin (HgG). To be noted: 0.3 mg i.v. in PBS three days after immunogen; versus controls immunized with HgG in incomplete Freund's adjuvant. It counts as in vivo, New Zealand rabbits. How it is done:
The immunostimulating property of Isomer 1 and Isomer 2 of D,L(2-adamantyl-)-glycyl-L-alanyl-D-isoglutamine was tested in rabbits immunized with human gamma globulin (HgG).
New Zealand rabbits (five per group) were immunized s.c. with 0.5 mg of HgG in incomplete Freund's adjuvant. Isomer 1/Isomer 2 (0.3 mg) was administered i.v. in phosphate buffered saline (PBS) three days after immunogen. The formation of anti-HgG antibodies was followed by a solid phase radioimmunoassay method to provide a quantitative measure of anti-HgG antibodies in rabbit sera. Serum antibody content (mg/mL) was determined by parallel line bioassay method, using >>SIGMA<< antihuman IgG (whole molecule) as a standard.

Where [4] appears, read: 25 mg/kg i.v. on day +4, hydrochloride.
Where [5] appears, read: 25 mg/kg i.v. on day +7, hydrochloride.

Consider `C[C@H](NC(=O)C(N)C1C2CC3CC(C2)CC1C3)C(=O)N[C@H](CCC(=O)O)C(N)=O.Cl` (single isomer, unassigned; isomer 1) [Isomer 1, D,L-(2-Adamantyl-)-glycyl-L-alanyl-D-isoglutamine hydrochloride], for which, in the experiment on MCa mammary carcinoma [1] (5 mg/kg i.v. days 1, 5, 9, 13), the “Primary tumor weight % Inhibition” value is given as -28% and the “Primary tumor weight mg ± S.E.” value was found to be 1387 ± 224 mg. In the experiment with MCa mammary carcinoma [1] (25 mg/kg i.v. days 1, 5, 9, 13), the “Primary tumor weight % Inhibition” value is recorded as -21% and the “Primary tumor weight mg ± S.E.” value was determined as 1522 ± 182 mg. For the same molecule, in the experiment with MCa mammary carcinoma [2], the “Animals without macroscopically detectable lung metastases %” value is recorded as 14.3%; the “lung metastases % Inhibition” value is -43%; the “lung metastases, mean” value was 2.71. In addition, in the experiment with Influenza A virus H3N2 (hydrochloride), the “MIC (minimum inhibitory concentration)” value was greater than 200 µg. In the experiment with melanoma B-16 (25 mg/kg i.v. on day +4), the “Animals without metastases %” value is on record as 37%. Further, in the experiment on melanoma B-16 (setting [4]), the “Number of metastatic nodules/mouse % inhibition” value is -68% and the “Number of metastatic nodules/mouse mean (min-max)” value is 1.0 (0-2). In the experiment on melanoma B-16 (setting [5]), the “Animals without metastases %” value is on record as 37%, the “Number of metastatic nodules/mouse % inhibition” value is on record as -76% and the “Number of metastatic nodules/mouse mean (min-max)” value is given as 0.64 (0-1). Besides, the “reduction of lung metastases to a fraction of the number in untreated control groups” value in the experiment on melanoma B-16 is recorded as 1/3. In addition, in the experiment with Influenza A virus H1N1 (hydrochloride), the “MIC (minimum inhibitory concentration)” value is 12.5 µg. In the experiment with MCa mammary carcinoma [3] (5 mg/kg i.v. days 1, 5, 9, 13), the “Survival time % Increase” value is listed as “+10%” and the “Survival time (days) mean (min-max)” value is 24.6 (18-31) days. Also, in the experiment on MCa mammary carcinoma [3] (25 mg/kg i.v. days 1, 5, 9, 13), the “Survival time % Increase” value is reported as “+13%” and the “Survival time (days) mean (min-max)” value is 25.4 (15-40) days.

For `C[C@H](NC(=O)C(N)C1C2CC3CC(C2)CC1C3)C(=O)N[C@H](CCC(=O)O)C(N)=O.Cl` (single isomer, unassigned; isomer 2) [Isomer 2, D,L-(2-Adamantyl-)-glycyl-L-alanyl-D-isoglutamine hydrochloride], the “reduction of the volume of the intramuscular tumor” value with MCa mammary carcinoma [1] (5 mg/kg bodyweight/day i.v., 24 hours after the last day of treatment) came out at 44%. For the same molecule, in the experiment with MCa mammary carcinoma [1] (5 mg/kg i.v. days 1, 5, 9, 13), the “Primary tumor weight % Inhibition” value is -44% and the “Primary tumor weight mg ± S.E.” value stood at 1076 ± 132 mg. In the experiment with MCa mammary carcinoma [1] (25 mg/kg i.v. days 1, 5, 9, 13), the “Primary tumor weight % Inhibition” value was -19% and the “Primary tumor weight mg ± S.E.” value was 1559 ± 177 mg. The “spontaneous dissemination of tumor to the lungs, % of controls” value in the experiment with MCa mammary carcinoma [2] (25 mg/kg bodyweight/day i.v.) is on record as 24 % of controls. Also, in the experiment with MCa mammary carcinoma [2], the “Animals without macroscopically detectable lung metastases %” value was 57.1% and 57%; the “lung metastases % Inhibition” value is -76%; the “lung metastases, mean” value is recorded as 1.14. The “Antibody formation against HgG” value in the experiment on anti-HgG antibodies is listed as “significantly enhanced”. The “MIC (minimum inhibitory concentration)” value in the experiment on Influenza A virus H3N2 (hydrochloride) worked out at 50 µg. Moreover, the “Animals without metastases %” value in the experiment on melanoma B-16 (25 mg/kg i.v. on day +4) is listed as 37%. Moreover, in the experiment on melanoma B-16 (setting [4]), the “Number of metastatic nodules/mouse % inhibition” value is -69% and the “Number of metastatic nodules/mouse mean (min-max)” value is 0.97 (0-2). In the experiment on melanoma B-16 (setting [5]), the “Animals without metastases %” value was found to be 28%, the “Number of metastatic nodules/mouse % inhibition” value is listed as -48% and the “Number of metastatic nodules/mouse mean (min-max)” value is listed as 1.38 (0-4). In addition, the “reduction of lung metastases to a fraction of the number in untreated control groups” value with melanoma B-16 was 1/3. For the same molecule, the “MIC (minimum inhibitory concentration)” value with Influenza A virus H1N1 (hydrochloride) stood at 100 µg. Besides, in the experiment with MCa mammary carcinoma [3] (5 mg/kg i.v. days 1, 5, 9, 13), the “Survival time % Increase” value is given as “+22%” and the “Survival time (days) mean (min-max)” value is recorded as 27.4 (18-40) days. In addition, in the experiment on MCa mammary carcinoma [3] (25 mg/kg i.v. days 1, 5, 9, 13), the “Survival time % Increase” value was “+32%” and the “Survival time (days) mean (min-max)” value is on record as 29.7 (18-40) days.

As for `NC12CC3CC(CC(C3)C1)C2` [Symmetrel, amantadine, reference compound], the “MIC (minimum inhibitory concentration)” value against Influenza A virus H3N2 and against Influenza A virus H1N1 was less than 12.5 µg in each case.
